Experiment: Fluorescence excitation and emission wavelengths
Type: physicochemical
Set-up: unit not given here
Settings: deoxyriboside compound

Substance: 2′-Deoxphenothiazine [phenothiazine deoxyriboside]
- emission wavelength (EM): 492

Reference: patent US6967079B2, “Pyrimidine derivatives for labeled binding partners” (ISIS Pharmaceuticals, Inc., priority 1993, dated 2005)
